Reference: PMC6664820, “Novel natural and synthetic inhibitors of solute carriers SGLT1 and SGLT2” (Pharmacology Research & Perspectives, 2019)
Structures can show the parent of a compound that is named as a salt.

What was measured:
CHO‐hSGLT1/2 cells = experiment: Cytotoxicity assay (ToxiLight, adenylate kinase leakage into CHO‐SGLT1/2 inhibition assay media); set-up: CYTOTOXICITY / CY[…], mean / CYTOTOXICITY (% of vehicle control) Mean / CYTOTOXICITY, mean / CY[…] (% of vehicle control) Mean: dose or concentration left out as unconfirmed; details: for CY[…] (% of vehicle control) Mean / CY[…] 50 mM / CYTOTOXICITY (% of vehicle control) Mean / CYTOTOXICITY: mean; for CY[…] 50 mM: at 50 mM (so in the source);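 as to all read-outs here: bioluminescent read-out of adenylate kinase released from lysed cells into the medium, given relative to DMSO vehicle control defined as 0%, higher meaning more cytolysis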
SGLT1 = molecular target: T1, SGLT1 (Homo sapiens, UniProt P13866); experiment: SGLT1 inhibition assay for validation of screening hits and similar compounds (1‐NBD‐glucose uptake, CHO‐hSGLT1 cells); format: cell-based; set-up: activity: dose or concentration left out as unconfirmed; details: for activity: compound, normalized 1-NBD-glucose uptake, CHO-hSGLT1 cells; for activity / remaining activity at 5 µM / remaining activity at 50 µM: mean; for remaining activity at 5 µM / remaining activity at 50 µM: 0.5 h, concentration not given, read-out: NORMALIZED SGLT1 ACTIVITY (%)
T1 sequence (P13866 1-664): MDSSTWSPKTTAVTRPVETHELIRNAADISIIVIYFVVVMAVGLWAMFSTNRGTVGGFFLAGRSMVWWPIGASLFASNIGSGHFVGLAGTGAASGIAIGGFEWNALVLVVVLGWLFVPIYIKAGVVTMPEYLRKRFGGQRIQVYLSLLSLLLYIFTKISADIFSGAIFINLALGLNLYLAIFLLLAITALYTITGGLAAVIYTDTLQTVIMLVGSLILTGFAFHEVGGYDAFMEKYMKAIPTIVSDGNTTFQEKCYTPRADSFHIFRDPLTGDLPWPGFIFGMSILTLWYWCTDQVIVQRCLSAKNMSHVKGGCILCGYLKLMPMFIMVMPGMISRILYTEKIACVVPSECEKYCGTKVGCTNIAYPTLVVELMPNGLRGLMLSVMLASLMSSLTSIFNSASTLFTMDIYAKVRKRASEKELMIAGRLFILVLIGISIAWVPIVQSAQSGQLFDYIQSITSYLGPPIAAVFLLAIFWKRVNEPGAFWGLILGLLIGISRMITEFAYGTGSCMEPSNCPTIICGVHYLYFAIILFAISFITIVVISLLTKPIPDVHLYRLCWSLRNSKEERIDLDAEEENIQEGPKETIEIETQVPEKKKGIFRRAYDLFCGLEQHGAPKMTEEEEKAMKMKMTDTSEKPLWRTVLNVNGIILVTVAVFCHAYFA

hSGLT2 = molecular target: T2, hSGLT2 (Homo sapiens, UniProt P31639); experiment: SGLT2 inhibition assay for validation of screening hits and similar compounds (1‐NBD‐glucose uptake, CHO‐hSGLT2 cells); format: cell-based; set-up: activity: dose or concentration left out as unconfirmed; details: for activity: compound, normalized 1-NBD-glucose uptake, CHO-hSGLT2 cells; for activity / remaining activity at 5 µM / remaining activity at 50 µM: mean; for SGLT2/SGLT1 ACTIVITY RATIO 5 uM Mean: ratio of normalized SGLT2 to SGLT1 activity at 5 uM; for remaining activity at 5 µM / remaining activity at 50 µM: 0.5 h, concentration not given, read-out: NORMALIZED SGLT2 ACTIVITY (%)
T2 sequence (P31639 1-672): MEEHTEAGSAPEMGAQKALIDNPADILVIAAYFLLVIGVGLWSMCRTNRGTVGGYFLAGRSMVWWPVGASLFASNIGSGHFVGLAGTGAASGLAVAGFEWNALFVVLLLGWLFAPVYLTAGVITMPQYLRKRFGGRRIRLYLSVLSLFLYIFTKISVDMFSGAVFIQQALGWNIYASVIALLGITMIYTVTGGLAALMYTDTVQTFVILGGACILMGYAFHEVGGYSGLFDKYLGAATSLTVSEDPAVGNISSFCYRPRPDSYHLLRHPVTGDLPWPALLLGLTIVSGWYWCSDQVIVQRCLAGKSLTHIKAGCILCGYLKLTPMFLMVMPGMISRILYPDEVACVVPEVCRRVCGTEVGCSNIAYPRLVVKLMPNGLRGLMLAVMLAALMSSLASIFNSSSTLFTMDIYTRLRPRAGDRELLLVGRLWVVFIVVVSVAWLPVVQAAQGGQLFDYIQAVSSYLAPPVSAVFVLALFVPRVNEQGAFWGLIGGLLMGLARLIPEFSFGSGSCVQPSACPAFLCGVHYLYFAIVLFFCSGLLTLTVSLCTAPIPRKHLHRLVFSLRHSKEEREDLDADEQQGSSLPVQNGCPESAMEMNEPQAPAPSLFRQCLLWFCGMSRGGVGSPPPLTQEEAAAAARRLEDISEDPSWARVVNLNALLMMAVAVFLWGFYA

[1] = mean inhibition with 50 μmol/L inhibitor
[2] = ratio of normalized SGLT2 to SGLT1 activity

Row | SMILES | activity (SGLT1) [%] | activity (hSGLT2) [%] | SGLT2/SGLT1 ACTIVITY RATIO 5 uM Mean (hSGLT2) | CYTOTOXICITY (% of vehicle control) Mean (CHO‐hSGLT1/2 cells) | other results
1 | OC(CCN1CCCCC1)(c1ccccc1)C1CC2C=CC1C2 (stereo not drawn) [Biperiden HCl] | 79 | 75 | 0.949 |  | CY[…] (% of vehicle control) Mean (CHO‐hSGLT1/2 cells): -7 % of vehicle control
2 | C1CCC(C(CC2CCCCN2)C2CCCCC2)CC1 (stereo not drawn) [Perhexiline maleate salt] |  |  |  |  | CY[…] 50 mM (CHO‐hSGLT1/2 cells): 0.684; remaining activity at 5 µM (SGLT1): 98%; remaining activity at 50 µM (SGLT1): 49%; remaining activity at 5 µM (hSGLT2): 88%; remaining activity at 50 µM (hSGLT2): 38%
3 | CN1CCC(OC(c2ccccc2)c2ccccc2)CC1 [Diphenylpyraline HCl] | 108 | 104 | 1.0 |  | CY[…] (% of vehicle control) Mean (CHO‐hSGLT1/2 cells): -6 % of vehicle control
4 | CC1(C)Oc2ccc3ccc(=O)oc3c2[C@@H](O)[C@H]1O[C@@H]1O[C@H](CO)[C@@H](O)[C@H](O)[C@H]1O [Praeroside II] | 98 | 98 | 1.0 | 10 % of vehicle control | 
5 | CCN(CC)CCOC(=O)C(c1ccccc1)c1ccccc1 [Adiphenine HCl] | 108 | 113 | 1.0 |  | CY[…] (% of vehicle control) Mean (CHO‐hSGLT1/2 cells): -16 % of vehicle control
6 | CCCN1CCCC[C@H]1C(=O)Nc1c(C)cccc1C [Ropivacaine HCl monohydrate] |  |  |  |  | CY[…] 50 mM (CHO‐hSGLT1/2 cells): 0.836; remaining activity at 5 µM (SGLT1): 97%; remaining activity at 50 µM (SGLT1): 70%; remaining activity at 5 µM (hSGLT2): 86%; remaining activity at 50 µM (hSGLT2): 67%
7 | O=C1c2cc(CO)cc(O)c2C(=O)c2c(O[C@@H]3O[C@H](CO)[C@@H](O)[C@H](O)[C@H]3O)cccc21 [Aloe-emodin-8-O-b-D-glucopyranoside] | 100 | 100 | 1.0 | -3.25 % of vehicle control | 
8 | COc1ccc(-c2coc3cc(O[C@@H]4O[C@H](CO)[C@@H](O)[C@H](O)[C@H]4O)cc(O)c3c2=O)cc1 [Sissotrin] | 99 | 106 | 1.1 | -23 % of vehicle control | 
9 | Cc1nc2sccn2c(=O)c1CCN1CCC(=C(c2ccc(F)cc2)c2ccc(F)cc2)CC1 [ritanserin, reference compound] |  |  |  |  | CYTOTOXICITY (CHO‐hSGLT1/2 cells): -5.28; SGLT2/SGLT1‐50μmol/L (ratio of SGLT2 to SGLT1 activities with 50 μmol/L inhibitor) (SGLT1): 0.3; remaining activity at 5 µM (SGLT1): 76%; remaining activity at 50 µM (SGLT1): 44%; remaining activity at 5 µM (hSGLT2): 64%; remaining activity at 50 µM (hSGLT2): 15%
10 | CC=C(C)C(=O)O[C@H]1c2c(ccc3ccc(=O)oc23)OC(C)(C)[C@H]1OC(=O)C(C)=CC [Praeruptorin B - INDOFINE] | 91 | 92 | 1.0 | -15 % of vehicle control | 
11 | COc1ccc(-c2coc3cc(O[C@@H]4O[C@H](CO)[C@@H](O)[C@H](O)[C@H]4O)c(OC)cc3c2=O)cc1OC [Cladrastin-7-O-b-D-glucopyranoside] | 104 | 103 | 1.0 | -23 % of vehicle control | 
12 | C/C=C(/C)C(=O)O[C@@H]1Cc2c(ccc3ccc(=O)oc23)OC1(C)C [Selinidin] | 99 | 94 | 0.952 | -6 % of vehicle control | inhibition at 50 µM (SGLT1; mean inhibition with 50 μmol/L inhibitor, read-out: SGLT1 inhibition): 12%; inhibition at 50 µM (hSGLT2; [1]): 25%
13 | CC1(C)Oc2ccc3ccc(=O)oc3c2CC1O (stereo not drawn) [Lomatin] |  |  | 1.0 | -26 % of vehicle control | SGLT1 inhibition (SGLT1; [1]): no SGLT inhibition; SGLT2 inhibition (hSGLT2; [1]): no SGLT inhibition
14 | Oc1ccc(/C=C/c2cc(O)cc3c2[C@H](c2cc(O)cc(O)c2)[C@@H](c2ccc(O)cc2)O3)cc1 [(+)-e-Viniferin] |  |  |  |  | CYTOTOXICITY (CHO‐hSGLT1/2 cells): 6; remaining activity at 5 µM (SGLT1): 97%; remaining activity at 50 µM (SGLT1): 56%; remaining activity at 5 µM (hSGLT2): 102%; remaining activity at 50 µM (hSGLT2): 79%
15 | CCC(C)C(=O)O[C@H]1[C@H](OC(C)=O)c2c(ccc3ccc(=O)oc23)OC1(C)C (stereo partly drawn) [peucedanocoumarin I] | 95 | 102 | 1.1 | 4.22 % of vehicle control | SGLT2/SGLT1‐50μmol/L (ratio of SGLT2 to SGLT1 activities with 50 μmol/L inhibitor) (SGLT1): 2
16 | Cc1cccc(C)c1NC(=O)C1CCCCN1C (racemic) [(±)-Mepivacaine HCl] |  |  |  |  | CYTOTOXICITY (CHO‐hSGLT1/2 cells): 3; remaining activity at 5 µM (SGLT1): 98%; remaining activity at 50 µM (SGLT1): 89%; remaining activity at 5 µM (hSGLT2): 89%; remaining activity at 50 µM (hSGLT2): 82%
17 | Clc1ccc(C(OCCN2CCCCC2)c2ccccc2)cc1 (stereo not drawn) [Cloperastine HCl] | 61 | 65 | 1.1 | -5 % of vehicle control | 
18 | C/C=C(\C)C(=O)O[C@H]1[C@@H](OC(C)=O)c2c(ccc3ccc(=O)oc23)OC1(C)C [(+)-Praeruptorin A] | 94 | 95 | 1.0 | -5.48 % of vehicle control | 
19 | O=c1c2ccccc2[nH]c(=S)n1CCN1CCC(=C(c2ccc(F)cc2)c2ccc(F)cc2)CC1 [Diacylglycerol Kinase Inhibitor II] |  |  |  |  | CYTOTOXICITY (CHO‐hSGLT1/2 cells): -13; remaining activity at 5 µM (SGLT1): 105%; remaining activity at 50 µM (SGLT1): 89%; remaining activity at 5 µM (hSGLT2): 106%; remaining activity at 50 µM (hSGLT2): 85%
20 | CC=C(C)C(=O)O[C@H]1c2c(ccc3ccc(=O)oc23)OC(C)(C)[C@H]1OC(C)=O [(+)-Pteryxin] | 75 | 81 | 1.1 | 2 % of vehicle control | 
21 | CC(=O)O[C@@H]1C[C@H](O)[C@@]23CO[C@@H](O)[C@]1(C)[C@@H]2C[C@@H](O)[C@]1(C)[C@@H]3C(=O)[C@H](OC(C)=O)[C@@]2(C)[C@H](c3ccoc3)C[C@H]3O[C@]321 [Toosendanin] |  |  |  |  | CYTOTOXICITY, mean (CHO‐hSGLT1/2 cells; ToxiLight, adenylate kinase leakage): -4.53; SGLT2/SGLT1 ACTIVITY RATIO, first concentration (hSGLT2; [2]): 1.0; SGLT2/SGLT1 ACTIVITY RATIO, second concentration (hSGLT2; [2]): 1.0
